Eight compounds from US20140135310A1, “SULPHONAMIDE DERIVATIVES OF ALICYCLIC AMINES FOR THE TREATMENT OF CENTRAL NERVOUS SYSTEM DISEASES” (Adamed Sp. z o.o., priority 2011, published 2014) can be followed below.

The target of experiment [1] is dopaminergic receptors D3 (Homo sapiens, UniProt P35462). As to the kind of experiment: Radioligand binding assay, dopaminergic D3 receptors. Conditions: test compound 1×10^−6 M. In short, it runs like this: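 Competition radioligand binding at human D2, D3 and D4.4 receptors, detected by scintillation counting; nonspecific binding defined with excess unlabelled ligand. Results as percent inhibition of control specific binding; IC50 by Hill-equation nonlinear regression; Ki via Cheng-Prusoff, with radioligand KD from Scatchard plot.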

Experiment [2] has as its target T1, H1 histaminergic receptors (Homo sapiens, UniProt P35367).
T1 construct: expressed in transfected cells; host or cells: HEK-293 cells
As to the kind of experiment: Radioligand binding assay, histaminergic H1 receptors. As to conditions: human recombinant (HEK-293 cells), [3H]pyrilamine 1 nM. In short, it runs like this:
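Competition binding at human H1 receptors; specific binding taken as total minus non-specific binding in excess unlabelled ligand, scintillation read-out. IC50 from Hill-equation fit of competition curves; Ki by Cheng-Prusoff using radioligand concentration and Kd (from Scatchard plot).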

The subject of another experiment is σ receptors. The experiment can be described thus: Radioligand binding assay, σ receptors. Conditions: rat cerebral cortex, [3H]DTG 8 nM. In short, it runs like this: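 Values derive from radioligand displacement, with non-specific binding defined by excess cold ligand and detection by scintillation. Hill-fit IC50s were converted to Ki via Cheng-Prusoff using Scatchard-derived Kd; percent inhibition of control specific binding also reported.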

A further experiment addresses T2, 5-HT2A receptor (Homo sapiens, UniProt P28223).
T2 construct: purchased PerkinElmer
The experiment can be described thus: Radioligand binding assay, serotoninergic 5-HT2A receptors. Conditions: for Ki: read-out: Inhibition constants Ki, 5-HT2A; for inhibition at 1 µM / 5-HT2A [%]: binding assay result in %, Table 5a. In short, it runs like this:
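Radioligand competition binding with scintillation counting; nonspecific binding defined by excess unlabelled ligand. Data as percent inhibition of control specific binding. IC50 by Hill-equation fit of competition curves; Ki by Cheng-Prusoff, with radioligand Kd from Scatchard plot.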

The target in experiment [3] is T3, 5-HT1A receptor (rat hippocampus) (Rattus norvegicus, UniProt P19327).
T3 construct: hippocampus; from tissue; host or cells: rat hippocampus
T3 sequence (P19327 1-422): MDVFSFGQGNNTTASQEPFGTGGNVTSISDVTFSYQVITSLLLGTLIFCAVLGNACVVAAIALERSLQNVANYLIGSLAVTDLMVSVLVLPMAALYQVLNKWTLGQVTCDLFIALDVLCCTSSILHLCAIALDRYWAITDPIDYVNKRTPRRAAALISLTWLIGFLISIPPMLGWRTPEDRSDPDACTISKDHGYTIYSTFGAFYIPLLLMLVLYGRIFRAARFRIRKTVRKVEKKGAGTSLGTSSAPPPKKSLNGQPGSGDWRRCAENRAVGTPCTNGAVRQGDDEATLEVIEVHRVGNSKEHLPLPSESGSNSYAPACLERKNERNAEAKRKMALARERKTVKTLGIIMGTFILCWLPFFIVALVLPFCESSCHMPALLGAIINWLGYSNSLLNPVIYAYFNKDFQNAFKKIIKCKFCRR
The experiment can be described thus: Radioligand binding assay, serotoninergic 5-HT1A receptors.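 Also: test compound at 1 µM.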 As to conditions: binding assay result in %, Table 5a.

The next experiment concerns the target T4, 5-HT7 receptor (Homo sapiens, UniProt P34969).
T4 construct: purchased PerkinElmer
The experiment can be described thus: Radioligand binding assay, serotoninergic 5-HT7 receptors.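 Also: test compound at 1 µM.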 Conditions: binding assay result in %, Table 5a. A digest of the protocol: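 Competition binding at human 5-HT7 receptors with a radioligand, detected by scintillation counting; non-specific binding was defined with excess unlabelled ligand. IC50 came from Hill-equation fits of competition curves, and Ki from Cheng–Prusoff using radioligand concentration and Scatchard-derived KD.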

The target of the next experiment is T5, α2C adrenergic receptors (Homo sapiens, UniProt P18825).
T5 construct: expressed in transfected cells; host or cells: CHO cells
T5 sequence (P18825 1-462): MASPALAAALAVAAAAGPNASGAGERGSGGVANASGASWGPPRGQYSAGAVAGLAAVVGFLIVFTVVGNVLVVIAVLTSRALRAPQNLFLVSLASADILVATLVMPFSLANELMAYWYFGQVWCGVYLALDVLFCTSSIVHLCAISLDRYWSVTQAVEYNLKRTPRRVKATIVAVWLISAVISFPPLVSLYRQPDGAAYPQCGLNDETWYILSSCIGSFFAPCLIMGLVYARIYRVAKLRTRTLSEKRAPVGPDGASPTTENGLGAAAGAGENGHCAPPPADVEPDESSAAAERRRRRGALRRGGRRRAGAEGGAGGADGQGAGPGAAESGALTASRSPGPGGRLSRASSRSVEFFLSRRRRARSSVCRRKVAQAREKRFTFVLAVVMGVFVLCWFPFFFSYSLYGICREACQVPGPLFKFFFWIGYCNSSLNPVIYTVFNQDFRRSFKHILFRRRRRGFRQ
The experiment can be described thus: Radioligand binding assay, adrenergic α2C receptors. As to conditions: test compound 1×10^−6 M. In short, it runs like this: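 Competitive radioligand binding at human α2C receptors, with scintillation counting. Nonspecific binding defined with excess unlabelled ligand; results given as % inhibition of control specific binding. IC50 from Hill-equation fits of competition curves; Ki via Cheng-Prusoff using radioligand concentration and Scatchard-derived KD.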

T2 sequence (P28223 whole entry): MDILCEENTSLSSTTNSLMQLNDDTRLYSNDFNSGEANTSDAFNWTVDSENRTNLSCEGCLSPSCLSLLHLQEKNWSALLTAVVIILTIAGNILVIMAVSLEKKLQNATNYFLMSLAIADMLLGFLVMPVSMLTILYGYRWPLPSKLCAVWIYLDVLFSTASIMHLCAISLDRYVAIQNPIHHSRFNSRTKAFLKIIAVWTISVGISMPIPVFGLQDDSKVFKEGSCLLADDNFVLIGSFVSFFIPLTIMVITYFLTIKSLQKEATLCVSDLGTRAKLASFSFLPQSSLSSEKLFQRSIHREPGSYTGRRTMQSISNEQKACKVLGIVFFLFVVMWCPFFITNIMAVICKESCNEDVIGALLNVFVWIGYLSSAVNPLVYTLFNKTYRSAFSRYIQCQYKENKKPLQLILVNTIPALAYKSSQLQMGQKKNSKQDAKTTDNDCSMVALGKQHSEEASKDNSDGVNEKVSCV
Chain of dopaminergic receptors D3 (P35462 whole entry): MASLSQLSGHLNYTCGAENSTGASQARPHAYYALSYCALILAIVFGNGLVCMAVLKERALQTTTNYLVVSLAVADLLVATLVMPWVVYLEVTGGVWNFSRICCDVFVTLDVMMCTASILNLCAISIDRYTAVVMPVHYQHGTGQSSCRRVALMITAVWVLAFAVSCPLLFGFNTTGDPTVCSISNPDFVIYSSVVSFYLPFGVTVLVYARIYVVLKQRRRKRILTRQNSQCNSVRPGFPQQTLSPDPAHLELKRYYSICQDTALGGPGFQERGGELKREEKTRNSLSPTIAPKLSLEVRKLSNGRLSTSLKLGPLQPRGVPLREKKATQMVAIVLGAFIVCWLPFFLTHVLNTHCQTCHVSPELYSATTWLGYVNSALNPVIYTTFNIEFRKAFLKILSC
T4 sequence (P34969 whole entry): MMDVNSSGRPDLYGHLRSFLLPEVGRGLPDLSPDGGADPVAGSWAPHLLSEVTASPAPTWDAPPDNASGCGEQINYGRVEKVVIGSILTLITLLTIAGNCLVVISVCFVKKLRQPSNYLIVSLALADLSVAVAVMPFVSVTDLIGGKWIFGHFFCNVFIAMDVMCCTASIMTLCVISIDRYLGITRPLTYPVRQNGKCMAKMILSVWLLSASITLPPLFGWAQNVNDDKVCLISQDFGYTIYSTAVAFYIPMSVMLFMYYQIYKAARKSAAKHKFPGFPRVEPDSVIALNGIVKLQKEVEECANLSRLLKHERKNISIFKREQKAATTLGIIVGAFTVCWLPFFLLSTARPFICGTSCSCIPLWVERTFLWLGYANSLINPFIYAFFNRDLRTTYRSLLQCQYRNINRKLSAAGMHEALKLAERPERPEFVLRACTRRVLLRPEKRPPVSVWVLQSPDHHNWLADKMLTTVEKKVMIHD
T1 sequence (P35367 whole entry): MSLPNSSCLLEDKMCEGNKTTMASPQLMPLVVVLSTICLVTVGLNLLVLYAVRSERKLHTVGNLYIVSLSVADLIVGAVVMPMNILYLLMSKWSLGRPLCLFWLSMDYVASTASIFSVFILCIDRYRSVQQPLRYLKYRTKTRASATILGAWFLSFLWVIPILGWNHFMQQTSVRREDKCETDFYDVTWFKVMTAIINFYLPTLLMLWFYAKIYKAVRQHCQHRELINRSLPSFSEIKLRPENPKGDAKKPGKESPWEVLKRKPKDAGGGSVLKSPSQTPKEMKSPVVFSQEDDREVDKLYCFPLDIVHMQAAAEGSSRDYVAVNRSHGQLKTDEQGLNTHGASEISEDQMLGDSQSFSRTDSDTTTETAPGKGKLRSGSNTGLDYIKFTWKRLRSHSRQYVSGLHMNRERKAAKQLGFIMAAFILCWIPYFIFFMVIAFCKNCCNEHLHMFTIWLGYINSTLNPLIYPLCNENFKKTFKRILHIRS

In the case of `O=S(=O)(N[C@@H]1CCN(CCCc2noc3cc(F)ccc23)C1)c1csc2ccccc12` [Compound 224, N-[(3R)-1-[3-(6-Fluoro-1,2-benzoxazol-3-yl)propyl]pyrrolidin-3-yl]benzothiophene-3-sulphonamide], the inhibition (usually the relative decrease from the control value, in per cent) at 1 µM in experiment [1] was determined as 87%; in experiment [2], 60%; in experiment [3], 76%; on 5-HT7 receptor it was 103%; on α2C adrenergic receptors, 79%. For the same compound, in the experiment on σ receptors, the “σ [%]” value was 91%. The Ki (commonly the dissociation constant of the complex between target and ligand, obtained from inhibition or displacement) on 5-HT2A receptor is 1.6 nM.
Consider `O=S(=O)(NCC1CN(CCCc2noc3cc(F)ccc23)C1)c1ccc(-c2ccccc2)cc1` [Compound 135, N-[[1-[3-(6-Fluoro-1,2-benzoxazol-3-yl)propyl]azetidin-3-yl]methyl]-4-phenyl-benzenesulphonamide], for which the inhibition at 1 µM in experiment [1] came out at 94%; in experiment [2], 79%; at 5-HT2A receptor, 99%; in experiment [3], 77%; on 5-HT7 receptor, 97%; on α2C adrenergic receptors, 95%. For the same compound, the “σ [%]” value with σ receptors was determined as 94%.
On to `O=S(=O)(NC1CCN(CCCc2noc3cc(F)ccc23)C1)c1ccc2cc(Cl)ccc2c1` (centres unmarked) [Compound 23, 6-Chloro-N-[1-[3-(6-fluoro-1,2-benzoxazol-3-yl)propyl]pyrrolidin-3-yl]naphthalene-2-sulphonamide], for which the inhibition at 1 µM came to 95% in experiment [1]; 60% in experiment [2]; 99% at 5-HT2A receptor; 24% in experiment [3]; 95% on 5-HT7 receptor; 89% on α2C adrenergic receptors. The “σ [%]” value in the experiment with σ receptors was determined as 61%.
Turning to `O=S(=O)(NCC1CCN(CCCc2noc3cc(F)ccc23)C1)c1ccc2ccccc2c1` (centres unmarked) [Compound 240, N-[[1-[3-(6-Fluoro-1,2-benzoxazol-3-yl)propyl]pyrrolidin-3-yl]methyl]-naphthalene-2-sulphonamide], the inhibition at 1 µM in experiment [1] stood at 75%; in experiment [2], 55%; on 5-HT2A receptor, 99%; in experiment [3], 30%; on 5-HT7 receptor it was 90%; at α2C adrenergic receptors, 84%. Besides, the “σ [%]” value in the experiment on σ receptors is 92%.
`O=S(=O)(N[C@@H]1CCN(CCCc2noc3cc(F)ccc23)C1)c1cc2ccccc2o1` [Compound 214, N-[(3R)-1-[3-(6-Fluoro-1,2-benzoxazol-3-yl)propyl]pyrrolidin-3-yl]benzo-furan-2-sulphonamide]: the inhibition at 1 µM in experiment [1] was 89%; in experiment [2], 52%; in experiment [3] it was 34%; at 5-HT7 receptor, 98%; on α2C adrenergic receptors, 74%. The “σ [%]” value in the experiment with σ receptors was 84%. Also, the Ki at 5-HT2A receptor was 2.1 nM.
With `CC1(C)Cc2cccc(OCCN3CCC(NS(=O)(=O)c4ccc5ccccc5c4)CC3)c2O1` [Compound 110, N-[1-[2-[(2,2-Dimethyl-3H-benzofuran-7-yl)oxy]ethyl]-4-piperidine]naphthalene-2-sulphonamide], in experiment [1], the “D3 [%]” value was 73%. Also, the “H1 [%]” value in experiment [2] turned out to be 52%. Moreover, in the experiment with σ receptors, the “σ [%]” value is on record as 56%. Besides, the “5-HT2A [%]” value at 5-HT2A receptor turned out to be 91%. Further, the “5-HT1A [%]” value in experiment [3] amounted to 95%. Further, the “5-HT7 [%]” value at 5-HT7 receptor was 99%. In addition, at α2C adrenergic receptors, the “α2C [%]” value was 98%.
Take `O=S(=O)(N[C@H]1CCN(CCCc2noc3cc(F)ccc23)C1)c1csc2ccccc12` [Compound 225, N-[(3S)-1-[3-(6-Fluoro-1,2-benzoxazol-3-yl)propyl]pyrrolidin-3-yl]benzothiophene-3-sulphonamide]: the inhibition at 1 µM in experiment [1] was 84%; in experiment [2], 57%; in experiment [3] it was 62%; on 5-HT7 receptor, 100%; at α2C adrenergic receptors it was 80%. Moreover, the “σ [%]” value with σ receptors was 96%. Besides, the inhibitory constant (Ki) on 5-HT2A receptor came to 0.9 nM.
`O=S(=O)(NC1CCN(CCOc2cccc3ccccc23)C1)c1cccc(O)c1` (centres unmarked) [Compound 115, 3-Hydroksy-N-[1-[2-(1-naphthyloxy)ethyl]pyrrolidin-3-yl]benzenesulphonamide]: the “D3 [%]” value in experiment [1] amounted to 97%. Also, the “H1 [%]” value in experiment [2] stood at 72%. For the same compound, the “σ [%]” value in the experiment with σ receptors came out at 69%. Also, on 5-HT2A receptor, the “5-HT2A [%]” value came to 99%. Further, in experiment [3], the “5-HT1A [%]” value is listed as 100%. Besides, on 5-HT7 receptor, the “5-HT7 [%]” value was 98%. The “α2C [%]” value at α2C adrenergic receptors was determined as 90%.
